Reference: patent publication US4004008A, “O-Tertiary amino-alkyl-N-benzoyl tyrosil amides” (priority 1974, dated 1977)
≈ marks a conversion by molar mass, not a printed value.

Key:
[1] = tested on: bile ducts (sphincter of Oddi); assay: Perfusion outflow of bile ducts (bile duct spasm by morphine); format: in vivo; settings: i.v.; CR 605 5, CR 725 10, CR 603 12.5 mg/kg; morphine 250 μg
From the text: (§8) The results shown in this table were obtained by perfusing with a physiological solution, the stomach and the bile ducts respectively and collecting the liquid emerging after the pylorus and the sphineter of Oddi.

[2] = Acute toxicity (DL50) i.v. in rat; format: in vivo; settings: in vivo, iv, dose causing death in 50% of the animals
Experimental: (§1) In this table (n. 1) there are recorded the compounds described in the examples with their relative serial numbers, the acute toxicity, the antispastic activity observed in two experimental tests, one "in vivo" and one "in vitro". There are moreover recorded two therapeutic indices which take account of the toxicity of these compounds in relation to their in vivo and in vitro activity. More precisely:
(§2) A. DL50 which, as is known, is the quantity of the substance expressed in mg/kg of animal weight, capable of causing death in 50% of the animals treated.

[3] = tested on: rat uterus (oxytocine spasm); assay: Antispastic activity in vitro on rat uterus, spasmiser oxytocine; format: cell-based; settings: Table 2; ED50 ratio
From the text: (§3) The activities which have been described so far both in vitro and in vivo can be confirmed using different animals or different organs. These activities are further improved if, instead of BaCl2 other spasmisers are used, such as serotoninehistamine and oxytocine (see Table 2).
(§4) The values contained in the table are expressed as comparison between the
(§5) substance being studied, and they therefore express the activity of the
(§6) compounds compared with known, very active substances.

[4] = tested on: cavy ileum (histamine spasm); assay: Antispastic activity in vitro on cavy ileum, spasmiser histamine; format: cell-based; settings: Table 2; ED50 ratio
Experimental: (§7) C. The method in vitro is that of Magnus, with the ileum of the cavy, and is in common use for all evaluations. It consists of extracting the ileum from the cavy and placing it in a receptacle which contains nutritive liquid, suitably oxygenated, and registering the movements of the organ which remains alive for several hours if maintained at a temperature of 37°. According to the traditional method followed by us, BaCl2 is put into the bath as a spasmisant: the reaction is a violent contraction of the organ. This contraction can be prevented by adding beforehand pharmaceuticals which inhibit spasms, and in this case our compounds.
as §3, §4, §5, §6

[5] = tested on: cavy ileum (serotonine spasm); assay: Antispastic activity in vitro on cavy ileum, spasmiser serotonine; format: cell-based; settings: Table 2; ED50 ratio
Experimental: as §7, §3, §4, §5, §6

stomach and pylorus = assay: Perfusion outflow of stomach and pylorus (gastro-pyloric spasm by morphine); format: in vivo; settings: i.v.; CR 605 5, CR 725 10, CR 603 12.5 mg/kg; morphine 250 μg
From the text: as §8

rat's ureter = assay: Ureter of rat in vitro; format: cell-based; settings: for IC50: Rattus norvegicus, read-out: Ureter of rat in vitro ED50
From the text: The in vitro evaluation was made on a rat's ureter suspended in a bath of physiological liquid according to a method similar to the Magnus method already described.

urinary bladder of a rat = assay: Urinary bladder movement of anaesthetised rat in vivo; settings: for ED50: read-out: Urinary sac of rat in vivo ED50; for activity in the urinary tract tests: statement on the bladder and ureter tests of Table 3
From the text: The in vivo evaluation was made upon the urinary bladder of a rat anaesthetised and placed in an environment heated to the animals body temperature whilst the bladder which is exposed is linked to a system which registers its movement. The pharmaceutilcals were given to the animals by intravenous means.

[6] = tested on: ileum of a cavy (BaCl2 spasm); assay: Antispastic activity in vitro, Magnus method, cavy ileum stimulated with BaCl2; format: cell-based; settings: for Antispastic activity in vitro, cavy ileum, BaCl2 (relative to papaverine = 1): Table 2, ED50 of test substance papaverine / ED50 of compound; for Antisp. activity in vitro on the ileum of a cavy by Stim. BaCl2: ED50 pap./ED50 CR: ratio to papaverine = 1, Table 1, 37°
Experimental: as §7
The values recorded are expressed as relation between papaverine and the ED50 of our compounds. (As is known, the ED50 is the dose which results in a 50% reduction in spastic contraction).
E. I.T.2 is the therapeutic index under the profile of the antispastic activity in vitro and is given by the product between the in vitro antispastic activity index (column 4) and the corresponding DL50 (column 2).

[7] = tested on: intestinal transit of the charcoal; assay: Vegetable carbon (charcoal) intestinal transit test in vivo; parameters: species or system rat; settings: for ED50: Rattus norvegicus, iv, 2 h, read-out: Antisp. activity in transit test: ED50; for ED50 / Antisp. activity in transit test: ED50: i.v., rat, charcoal test, 2 hours
Experimental: B. The vegetable carbon method in vivo (charcoal method) which consists of administering by oral means to rats, which have fasted for 24 hours, 0.3ml/per rate of a mixture consisting of: 10g of charcoal and 5 g of gum arabic suspended in a volume of 100 cc of H2 O as well as at the same time the substance being studied, accordingly as desired, generally i.v., s.c., oral. After two hours the animals are killed and those are taken to be negative in which the charcoal has reached the first portion of the colon and the others positive, in the sense that the substance administered has slowed down the intestinal transit of the charcoal.
In effect the animals treated with a physiological solution (checks) are all negative after two hours.
D. I.T.1 is the therapeutic index under the profile of the antispastic activity in vivo, and it is obtained by recording the DL50 (column 2) with the ED50 of the charcoal test (column 3).

rat = assay: Acute toxicity (DL50) i.v. in rat; format: in vivo; settings: dose causing death in 50% of the animals
Experimental: as §1, §2

[8] = tested on: caudal artery of a rat (electric stimulation); assay: Antispastic activity on caudal artery of rat, electrically stimulated; format: cell-based; settings: 50% reduction of response to electric stimulation
Experimental: In another experiment the caudal artery of a rat was electrically stimulated and the pharmaceuticals were added to the bath. The activity was assessed at ED50, i.e., the quantity of pharmaceutical expressed in μg/ml of the perfusion liquid able to reduce by half the response of the electric stimulation compared with that of the checks.
Antispastic activity of some of the compounds claimed on the caudal artery of a rat, electrically stimulated: the values are expressed in ED50 (see Specification).

[9] = tested on: caudal artery of a rat (ergotamine tartrate contraction); assay: Antispastic activity on caudal artery of rat stimulated with ergotamine tartrate; format: cell-based; settings: ergotamine tartrate 350 μg/ml of perfusion liquid; 50% reduction of contraction
Experimental: An in vitro evaluation of this activity was made upon the caudal artery of a rat, suspended, so that one can register the variation of internal pressure, and contracted with ergotamine tartrate put in to the arterial lumen of the said vessel with a dose of 350 μg/ml of perfusion liquid.
The spasm was antagonised with the compounds being tested. The evaluation was made with ED50, i.e., a concentration of the product in the perfusion liquid expressed as μg/ml able to reduce the contraction thus induced by 50%.
Antispastic activity of some of the claimed compounds upon the caudal artery of a rat stimulated with ergotamine tartrate: values are expressed in ED50 (see specification).

## CCCN(CCC)C(=O)C(Cc1ccc(OCCN(CC)CC)cc1)NC(=O)c1ccccc1 (racemic) [CR 605, O-(2-diethylamino-ethyl)-N-benzoyl-DL-tyrosil-di-n-propylamide]
[1]
  Bile ducts, %age variation between the 1st and 2nd hour: +21.5%
  Bile ducts, outflow after the 1st hour: 46.6 mL
  Bile ducts, outflow after the 2nd hour: 56.6 mL
[2]
  LD50: 33.9 mg/kg
[3]
  Antispastic activity in vitro, rat uterus, oxytocine (relative to papaverine = 1): 0.09
[4]
  Antispastic activity in vitro, cavy ileum, histamine (relative to prometazine = 1): 0.17
[5]
  Antispastic activity in vitro, cavy ileum, serotonine (relative to methysergide = 1): 0.69
Stomach and pylorus
  Stomach and pylorus, outflow after the 1st hour: 131.2 mL
  Stomach and pylorus, outflow after the 2nd hour: 132.9 mL
rat's ureter
  IC50: 74.2 µg/mL (≈ 159 µM)
Urinary bladder of a rat; intravenous, anaesthetised rat
  ED50: 6.25 mg/kg
[6]
  Antispastic activity in vitro, cavy ileum, BaCl2 (relative to papaverine = 1): 1.25
  Antisp. activity in vitro on the ileum of a cavy by Stim. BaCl2: ED50 pap./ED50 CR: 1.25
[7]
  ED50: 10.6 mg/kg

## CCCCNC(=O)C(Cc1ccc(OCCN2CCCC2)cc1)NC(=O)c1ccc(C)cc1 (racemic) [CR 651, O-(2-pyrrolidil-N'-ethyl)-N-toluoyl-DL-tyrosil-n-butylamide]
rat
  DL50 in a rat: 34.1 mg/kg
[8]
  ED50, caudal artery, electrically stimulated: 19 µg/mL (≈ 42.1 µM)
[9]
  ED50, caudal artery, ergotamine tartrate: 37 µg/mL (≈ 81.9 µM)
[6]
  Antisp. activity in vitro on the ileum of a cavy by Stim. BaCl2: ED50 pap./ED50 CR: 1.60
[7]
  Antisp. activity in transit test: ED50: 16.3 mg/kg

## CCCN(CCC)C(=O)C(Cc1ccc(OCCN(CC)CC)cc1)NC(=O)c1ccc(Cl)cc1 (racemic) [CR 716, O-(2-diethylamino-ethyl)-N-(p-chloro-benzoyl)-DL-tyrosil-di-n-propylamide]
[2]
  LD50: 56.4 mg/kg
[3]
  Antispastic activity in vitro, rat uterus, oxytocine (relative to papaverine = 1): 0.06
[4]
  Antispastic activity in vitro, cavy ileum, histamine (relative to prometazine = 1): 0.08
[5]
  Antispastic activity in vitro, cavy ileum, serotonine (relative to methysergide = 1): 0.74
[6]
  Antispastic activity in vitro, cavy ileum, BaCl2 (relative to papaverine = 1): 1.58
  Antisp. activity in vitro on the ileum of a cavy by Stim. BaCl2: ED50 pap./ED50 CR: 1.58
[7]
  ED50: 26.5 mg/kg

## CCCN(CCC)C(=O)C(Cc1ccc(OCCCN2CCN(C)CC2)cc1)NC(=O)c1ccc(Cl)cc1 (racemic) [CR 725, O-[3-(N"-methyl-piperazine)-N'-propyl]-N-(p-chloro-benzoyl)-DL-tyrosil-di-n-propylamide]
[1]
  Bile ducts, outflow after the 1st hour: 49.7 mL
  Bile ducts, outflow after the 2nd hour: 53.2 mL
[2]
  LD50: 62.6 mg/kg
[3]
  Antispastic activity in vitro, rat uterus, oxytocine (relative to papaverine = 1): 0.18
[4]
  Antispastic activity in vitro, cavy ileum, histamine (relative to prometazine = 1): 0.24
[5]
  Antispastic activity in vitro, cavy ileum, serotonine (relative to methysergide = 1): 1.2
Stomach and pylorus
  Stomach and pylorus, outflow after the 1st hour: 167.2 mL
  Stomach and pylorus, outflow after the 2nd hour: 165.5 mL
rat's ureter
  IC50: 27.3 µg/mL (≈ 50.3 µM)
Urinary bladder of a rat; intravenous, anaesthetised rat
  ED50: 8.32 mg/kg
[6]
  Antispastic activity in vitro, cavy ileum, BaCl2 (relative to papaverine = 1): 3.20
  Antisp. activity in vitro on the ileum of a cavy by Stim. BaCl2: ED50 pap./ED50 CR: 3.20
[7]
  ED50: 12.2 mg/kg

## CCCCN(CCCC)C(=O)C(Cc1ccc(OCCCN2CCN(C)CC2)cc1)NC(=O)c1ccccc1Cl (racemic) [CR 731, O-[3-(N"-methyl-piperazine)-N'-propyl]-N-(o-chloro-benzoyl)-DL-tyrosil-di-n-butylamide]
rat
  DL50 in a rat: 61 mg/kg
[6]
  Antisp. activity in vitro on the ileum of a cavy by Stim. BaCl2: ED50 pap./ED50 CR: 1.75
[7]
  Antisp. activity in transit test: ED50: 39.4 mg/kg

## CCCN(CCC)C(=O)C(Cc1ccc(OCCN(CC)CC)cc1)NC(=O)c1ccc(C)cc1 (racemic) [CR 807, O-(2-diethylamino-ethyl)-N-toluoyl-DL-tyrosil-di-n-propylamide]
rat
  DL50 in a rat: 31.5 mg/kg
[6]
  Antisp. activity in vitro on the ileum of a cavy by Stim. BaCl2: ED50 pap./ED50 CR: 0.34
[7]
  Antisp. activity in transit test: ED50: 21 mg/kg

## CCCCCCNC(=O)C(Cc1ccc(OCCN2CCCC2)cc1)NC(=O)c1ccc(C)cc1 (racemic) [CR 826, 0-(2-pyrrolidil-N'-ethyl)-N-toluoyl-DL-tyrosil-n-hexylamide]
rat
  DL50 in a rat: 41 mg/kg
[6]
  Antisp. activity in vitro on the ileum of a cavy by Stim. BaCl2: ED50 pap./ED50 CR: 1.2
[7]
  Antisp. activity in transit test: ED50: 17.0 mg/kg

## CN1[C@@H]2CC[C@H]1C[C@@H](OC(=O)C(CO)c1ccccc1)C2 (stereo partly drawn) [Atropine, atropine, reference compound]
rat's ureter
  Ureter of rat in vitro ED50: inactive
Urinary bladder of a rat
  activity in the urinary tract tests: inactive

## CCCN(CCC)C(=O)C(Cc1ccc(OCCN(CC)CC)cc1)NC(=O)OCc1ccccc1 [CR 627, O-(2-diethylamino-ethyl)-N-carbobenzoxy-D-tyrosil-di-n-propylamide]
rat
  DL50 in a rat: 34.0 mg/kg
[6]
  Antisp. activity in vitro on the ileum of a cavy by Stim. BaCl2: ED50 pap./ED50 CR: 1.44
[7]; 120 min
  Antisp. activity in transit test: ED50: 20.8 mg/kg

## CCCC[N+]1(C)C2CC(OC(=O)C(CO)c3ccccc3)CC1C1OC12 (stereo not drawn) [Joscina-N-butyl-bromide]
Urinary bladder of a rat; intravenous, anaesthetised rat
  Urinary sac of rat in vivo ED50: inactive
Urinary bladder of a rat
  activity in the urinary tract tests: inactive

## CN1CC[C@]23c4c5ccc(O)c4O[C@H]2[C@@H](O)C=C[C@H]3[C@H]1C5 [Morphine, morphine, reference compound]
[1]
  Bile ducts, %age variation between the 1st and 2nd hour: -48.3%
Stomach and pylorus
  Stomach and pylorus, %age variation between 1st and 2nd hour: -54.5%

## COc1ccc(Cc2nccc3cc(OC)c(OC)cc23)cc1OC [Papaverine, papaverine, reference compound]
[2]
  LD50: 27.2 mg/kg
rat's ureter
  IC50: 45.2 µg/mL (≈ 133 µM)
Urinary bladder of a rat; intravenous, anaesthetised rat
  ED50: 7.59 mg/kg
[6]
  Antisp. activity in vitro on the ileum of a cavy by Stim. BaCl2: ED50 pap./ED50 CR: 1
[7]
  ED50: 22.5 mg/kg
[7]; therapeutic index, DL50 / charcoal ED50, rat i.v.
  I.T.1: DL50/ED50 in vivo: 1.2

## O-(3-pyrrolidil-N'-propyl)-N-toluoyl-DL-tyrosil-n-butylamide [CR 797]
rat
  DL50 in a rat: 20.6 mg/kg
[6]
  Antisp. activity in vitro on the ileum of a cavy by Stim. BaCl2: ED50 pap./ED50 CR: 1.32
[7]
  Antisp. activity in transit test: ED50: 12.0 mg/kg
